Results on one compound are retold here after US9161543B2, “Biocontrol through the use of chlorine-stabilizer blends” (NALCO COMPANY, priority 2011, dated 2015).

This series can be described thus: Blending of stabilizer and sodium hypochlorite: residual oxidant (TRO, FRO) and yield. The series is classed as physicochemical. The settings on record: Molar Ratio Cl2:N2 4:1. On the procedure:
A number of biocide formulations were prepared and were applied to samples of process water from a paper mill.

For `NS(=O)(=O)O` [sulfamic acid], for the setting “Caustic in Bleach = 0.5%”, the “FRO (free residual oxidant)” value was 1219 ppm, the FRO/TRO is 18.61%, the “TRO (total residual oxidant)” value stood at 6550 ppm and the “TRO Yield” value is given as 80.93%. In addition, for the setting “Caustic in Bleach = 3.2%”, the “FRO (free residual oxidant)” value is listed as 1450 ppm, the FRO/TRO was determined as 23.02%, the “TRO (total residual oxidant)” value was found to be 6300 ppm and the “TRO Yield” value was 77.84%.
